{"source": "patent US20250099474A1", "about": "(priority 2022, published 2025)", "key": {"[1]": {"assay": "Phase I clinical study Part 1, single administration, pharmacokinetics and safety", "assay_type": "in vivo, human", "conditions": "human, plasma, oral; in any dose group, single administration", "protocol": "Test Example 3-1 Phase I Clinical Study\nAll studies were conducted based on Good Clinical Practice (GCP). The phase I clinical study was composed of Part 1 to Part 7, and in Part 1, the safety, tolerability, and pharmacokinetics were confirmed when the fumaric acid cocrystal Form I crystal of the compound represented by Formula (I) was administered once and when it was administered repeatedly.\nThe subjects who were determined to be eligible by the screening examination were randomly assigned to either the active drug group (see the following table for the dose of the fumaric acid cocrystal Form I crystal of the compound represented by Formula (I)) or the placebo group on the day before the day of administration of the investigational new drug (Day −1). On Day 1, the investigational new drug (active drug or placebo) was administered once in the fasted state."}, "[2]": {"conditions": "single ascending dose study in healthy Japanese adults; cited from earlier work"}}, "data": [{"smiles": "Cn1cnc(Cn2c(=O)[nH]/c(=N\\c3cc4cn(C)nc4cc3Cl)n(Cc3cc(F)c(F)cc3F)c2=O)n1", "note": "[compound represented by Formula (I), (6E)-6-[(6-chloro-2-methyl-2H-indazol-5-yl)imino]-3-[(1-methyl-1H-1,2,4-triazol-3-yl)methyl]-1-[(2,4,5-trifluorophenyl)methyl]-1,3,5-triazinane-2,4-dione]", "values": [{"measurement": "half-life", "setting": "[1]", "value": "> 40", "unit": "h"}, {"measurement": "Safety and tolerability", "setting": "[2]", "value": "good safety and tolerability were confirmed"}]}]}
